# From patent publication US12655116B2, “Substituted isophthalic acid diamides” (Bayer Aktiengesellschaft, priority 2020, dated 2026)
# What was measured:
# [1] = system: ABUTH; assay: Pre-emergence herbicidal action against ABUTH; format: in vivo, Abutilon theophrasti; details: Abutilon theophrasti, 504 h; for pest or weed control at 80 g/ha: scored visually after 3 weeks vs untreated controls (100% = plants have died, 0% = like control plants); for pest or weed control at 20 g/ha: dosage 20 g/ha, scored visually after 3 weeks vs untreated controls, 100% = plants have died, 0% = like control plants, read-out: Pre-emergence action against ABUTH (herbicidal activity in percent)
# Procedure, shortened: (§1)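 Herbicidal effect was assessed 3 weeks after treatment by visual comparison with untreated controls, 100% denoting dead plants. Aqueous WP or EC preparations had been applied at 600 to 800 l/ha with 0.2% wetting agent to the soil covering freshly sown seeds.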
# [2] = system: ALOMY; assay: Pre-emergence herbicidal action against ALOMY; format: in vivo, Alopecurus myosuroides; details: Alopecurus myosuroides, 504 h; 80 g/ha, pre-emergence, scored visually after 3 weeks vs untreated controls (100% = plants have died, 0% = like control plants)
# Procedure, shortened: as §1
# [3] = system: AMARE; assay: Pre-emergence herbicidal action against AMARE; format: in vivo, Amaranthus retroflexus; details: Amaranthus retroflexus, 504 h, scored visually after 3 weeks vs untreated controls, 100% = plants have died, 0% = like control plants
# Procedure, shortened: as §1
# [4] = system: AVEFA; assay: Pre-emergence herbicidal action against AVEFA; format: in vivo, Avena fatua; details: Avena fatua, 504 h, pre-emergence
# Procedure, shortened: as §1
# [5] = system: ECHCG; assay: Pre-emergence herbicidal action against ECHCG; format: in vivo, Echinochloa crus-galli; details: Echinochloa crus-galli, 504 h, 80 g/ha
# Procedure, shortened: as §1
# [6] = system: LOLRI; assay: Pre-emergence herbicidal action against LOLRI; format: in vivo, Lolium rigidum; details: Lolium rigidum, 504 h, 80 g/ha
# Procedure, shortened: as §1
# [7] = system: MATIN; assay: Pre-emergence herbicidal action against MATIN; format: in vivo, Matricaria inodora; details: Tripleurospermum inodorum, 504 h; for pest or weed control at 20 g/ha: dosage 20 g/ha; for pest or weed control at 80 g/ha: dosage 80 g/ha
# Procedure, shortened: as §1
# [8] = system: PHBPU; assay: Pre-emergence herbicidal action against PHBPU; format: in vivo, Pharbitis purpurea; details: Ipomoea purpurea, 504 h, dosage 80 g/ha
# Procedure, shortened: as §1
# [9] = system: POLCO; assay: Pre-emergence herbicidal action against POLCO; format: in vivo, Polygonum convolvulus; details: Fallopia convolvulus, 504 h; for pest or weed control at 80 g/ha: dosage 80 g/ha
# Procedure, shortened: as §1
# [10] = system: SETVI; assay: Pre-emergence herbicidal action against SETVI; format: in vivo, Setaria viridis; details: Setaria viridis, 504 h, dosage 80 g/ha
# Procedure, shortened: as §1
# [11] = system: STEME; assay: Pre-emergence herbicidal action against STEME; format: in vivo, Stellaria media; details: Stellaria media, 504 h; for pest or weed control at 20 g/ha: dosage 20 g/ha; for pest or weed control at 80 g/ha: dosage 80 g/ha
# Procedure, shortened: as §1
# [12] = system: VERPE; assay: Pre-emergence herbicidal action against VERPE; format: in vivo, Veronica persica; details: Veronica persica, 504 h, dosage 80 g/ha
# Procedure, shortened: as §1
# [13] = system: VIOTR; assay: Pre-emergence herbicidal action against VIOTR; format: in vivo, Viola tricolor; details: Viola tricolor, 504 h; for pest or weed control at 20 g/ha: dosage 20 g/ha; for pest or weed control at 80 g/ha: dosage 80 g/ha
# Procedure, shortened: as §1
# [14] = system: DIGSA; assay: Pre-emergence herbicidal action against DIGSA; format: in vivo, Digitaria sanguinalis; details: Digitaria sanguinalis, 504 h; for pest or weed control at 80 g/ha: dosage 80 g/ha
# Procedure, shortened: as §1
# [15] = system: ABUTH; assay: Post-emergence herbicidal action against ABUTH; format: in vivo, Abutilon theophrasti; details: Abutilon theophrasti, 504 h, visual assessment about 3 weeks after treatment vs untreated controls; for pest or weed control at 5 g/ha: dosage 5 g/ha; for pest or weed control at 20 g/ha: dosage 20 g/ha
# Procedure, shortened: (§2)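 Herbicidal effect was scored visually in percent after about 3 weeks in the greenhouse. Plants had been raised in sandy loam and treated post-emergence at the one-leaf stage with formulated compound at 600 to 800 l/ha water plus 0.2% wetting agent.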
# [16] = system: ALOMY; assay: Post-emergence herbicidal action against ALOMY; format: in vivo, Alopecurus myosuroides; details: Alopecurus myosuroides, 504 h, dosage 20 g/ha, visual assessment about 3 weeks after treatment vs untreated controls
# Procedure, shortened: as §2
# [17] = system: AMARE; assay: Post-emergence herbicidal action against AMARE; format: in vivo, Amaranthus retroflexus; details: Amaranthus retroflexus, 504 h, 20 g/ha, visual assessment about 3 weeks after treatment, 100% = plants have died, 0% = like control plants
# Procedure, shortened: as §2
# [18] = system: AVEFA; assay: Post-emergence herbicidal action against AVEFA; format: in vivo, Avena fatua; details: Avena fatua, 504 h, 20 g/ha, visual assessment about 3 weeks after treatment, 100% = plants have died, 0% = like control plants
# Procedure, shortened: as §2
# [19] = system: ECHCG; assay: Post-emergence herbicidal action against ECHCG; format: in vivo, Echinochloa crus-galli; details: Echinochloa crus-galli, 504 h
# Procedure, shortened: as §2
# [20] = system: MATIN; assay: Post-emergence herbicidal action against MATIN; format: in vivo, Matricaria inodora; details: Tripleurospermum inodorum, 504 h; for pest or weed control at 20 g/ha: dosage 20 g/ha
# Procedure, shortened: as §2
# [21] = system: PHBPU; assay: Post-emergence herbicidal action against PHBPU; format: in vivo, Pharbitis purpurea; details: Ipomoea purpurea, 504 h; for pest or weed control at 5 g/ha: dosage 5 g/ha; for pest or weed control at 20 g/ha: dosage 20 g/ha
# Procedure, shortened: as §2
# [22] = system: SETVI; assay: Post-emergence herbicidal action against SETVI; format: in vivo, Setaria viridis; details: Setaria viridis, 504 h, dosage 20 g/ha
# Procedure, shortened: as §2
# [23] = system: STEME; assay: Post-emergence herbicidal action against STEME; format: in vivo, Stellaria media; details: Stellaria media, 504 h, 20 g/ha
# Procedure, shortened: as §2
# [24] = system: VERPE; assay: Post-emergence herbicidal action against VERPE; format: in vivo, Veronica persica; details: Veronica persica, 504 h, 20 g/ha
# Procedure, shortened: as §2
# [25] = system: VIOTR; assay: Post-emergence herbicidal action against VIOTR; format: in vivo, Viola tricolor; details: Viola tricolor, 504 h
# Procedure, shortened: as §2
# [26] = system: DIGSA; assay: Post-emergence herbicidal action against DIGSA; format: in vivo, Digitaria sanguinalis; details: Digitaria sanguinalis, 504 h
# Procedure, shortened: as §2
# [27] = system: HORMU; assay: Pre-emergence herbicidal action against HORMU; format: in vivo, Hordeum murinum; details: Hordeum murinum, 504 h; 80 g/ha, pre-emergence
# Text: Seeds of monocotyledonous and dicotyledonous weed plants and crop plants are laid out in sandy loam soil in wood-fiber pots and covered with soil. The compounds of the invention, formulated in the form of wettable powders (WP) or as emulsion concentrates (EC), are then applied to the surface of the covering soil in the form of an aqueous suspension or emulsion at a water application rate equivalent to 600 to 800 l/ha, with addition of 0.2% wetting agent. After the treatment, the pots are placed in a greenhouse and kept under good growth conditions for the trial plants. The damage to the test plants is scored visually after a test period of 3 weeks by comparison with untreated controls (herbicidal activity in percent (%): 100% activity=the plants have died, 0% activity=like control plants). […] The tables below illustrate, in an illustrative manner, the post-emergence herbicidal action of the compounds of the invention, the herbicidal activity being stated in percent.
SMILES,pest or weed control at 80 g/ha [1] [%],pest or weed control at 20 g/ha [1] [%],pest or weed control at 80 g/ha [2] [%],pest or weed control at 20 g/ha [3] [%],pest or weed control at 80 g/ha [3] [%],pest or weed control at 80 g/ha [4] [%],pest or weed control at 20 g/ha [7] [%],pest or weed control at 80 g/ha [7] [%],pest or weed control at 80 g/ha [9] [%],pest or weed control at 20 g/ha [11] [%],pest or weed control at 80 g/ha [11] [%],pest or weed control at 20 g/ha [13] [%],pest or weed control at 80 g/ha [13] [%],pest or weed control at 80 g/ha [14] [%],pest or weed control at 5 g/ha [15] [%],pest or weed control at 20 g/ha [15] [%],pest or weed control at 20 g/ha [16] [%],pest or weed control at 20 g/ha [17] [%],pest or weed control at 20 g/ha [20] [%],pest or weed control at 5 g/ha [21] [%],further results
Cc1c(C(=O)Nc2nnnn2C)ccc(C(F)F)c1C(=O)NC1CC1 [Example 1-46],100,90,90,100,100,100,90,100,80,90,100,90,100,100,90,90,90,100,80,80,pest or weed control at 80 g/ha [5]: 80%; pest or weed control at 80 g/ha [6]: 90%; pest or weed control at 80 g/ha [8]: 80%; pest or weed control at 80 g/ha [10]: 100%; pest or weed control at 80 g/ha [12]: 90%; pest or weed control at 20 g/ha ([14]; dosage 20 g/ha): 90%; pest or weed control at 20 g/ha [18]: 80%; pest or weed control at 5 g/ha ([19]; dosage 5 g/ha): 80%; pest or weed control at 20 g/ha ([19]; dosage 20 g/ha): 80%; pest or weed control at 20 g/ha [21]: 80%; pest or weed control at 20 g/ha [22]: 80%; pest or weed control at 20 g/ha [23]: 80%; pest or weed control at 20 g/ha [24]: 90%; pest or weed control at 5 g/ha ([25]; 5 g/ha): 80%; pest or weed control at 20 g/ha [25]: 80%; pest or weed control at 5 g/ha ([26]; 5 g/ha): 80%; pest or weed control at 20 g/ha ([26]; 20 g/ha): 80%
CCCn1nnnc1NC(=O)c1ccc(C(F)(F)F)c(C(=O)NCC)c1C [Example 3-26],100,100,80,100,100,100,90,100,90,80,100,100,100,100,80,90,80,90,90,80,"pest or weed control at 20 g/ha ([4]; 20 g/ha, scored visually after 3 weeks, 100% = plants have died, 0% = like control plants): 80%; pest or weed control at 80 g/ha [27]: 80%; pest or weed control at 20 g/ha ([9]; dosage 20 g/ha): 80%; pest or weed control at 5 g/ha ([20]; dosage 5 g/ha): 90%; pest or weed control at 20 g/ha [21]: 90%; pest or weed control at 20 g/ha [23]: 90%; pest or weed control at 20 g/ha [25]: 90%"
